Key:
[1] = in vivo; cited from earlier work
[2] = in vivo

SMILES: CCN1CCCC1CNC(=O)c1c(OC)ccc(Br)c1OC (stereo in doubt) [Remoxipride(R)]
- HIA(Human Intestinal Absorption) [1]: 1
- Class(High: HIA value ≥0.7; Low: HIA value < 0.7) [2]: High (key: High: HIA value ≥0.7; Low: HIA value < 0.7)

SMILES: C[C@H]1COc2c(N3CCN(C)CC3)c(F)cc3c(=O)c(C(=O)O)cn1c23 [Ofloxacin(S)]
- HIA(Human Intestinal Absorption) [1]: 1
- Class(High: HIA value ≥0.7; Low: HIA value < 0.7) [2]: High (key: High: HIA value ≥0.7; Low: HIA value < 0.7)

SMILES: Cc1nccn1C[C@@H]1CCc2c(c3ccccc3n2C)C1=O [Ondansetron(S)]
- HIA(Human Intestinal Absorption) [1]: 1
- Class(High: HIA value ≥0.7; Low: HIA value < 0.7) [2]: High (key: High: HIA value ≥0.7; Low: HIA value < 0.7)

SMILES: Cn1c(=O)c2c(ncn2CCCNC[C@@H](O)c2cc(O)cc(O)c2)n(C)c1=O [Reproterol(S)]
- HIA(Human Intestinal Absorption) [1]: 0.6
- Class(High: HIA value ≥0.7; Low: HIA value < 0.7) [2]: Low (key: High: HIA value ≥0.7; Low: HIA value < 0.7)

SMILES: CC1=CC(=O)N2CC(=O)N(C)c3ccc(Cl)cc3C2(c2ccccc2)O1 (centres unmarked) [Ketazolam]
- HIA(Human Intestinal Absorption) [1]: 1
- Class(High: HIA value ≥0.7; Low: HIA value < 0.7) [2]: High (key: High: HIA value ≥0.7; Low: HIA value < 0.7)

SMILES: CCN(CC)CCCOC(=O)C1(c2ccccc2)CC2CCC1C2 (centres unmarked) [Bornaprine]
- HIA(Human Intestinal Absorption) [1]: 1
- Class(High: HIA value ≥0.7; Low: HIA value < 0.7) [2]: High (key: High: HIA value ≥0.7; Low: HIA value < 0.7)

SMILES: CC(=O)NCCCS(=O)(=O)O [Acamprosate]
- HIA(Human Intestinal Absorption) [1]: 0.11
- Class(High: HIA value ≥0.7; Low: HIA value < 0.7) [2]: Low (key: High: HIA value ≥0.7; Low: HIA value < 0.7)

SMILES: CC[C@H](C(=O)O)c1ccc(N2Cc3ccccc3C2=O)cc1 [Indobufen(S)]
- HIA(Human Intestinal Absorption) [1]: 1
- Class(High: HIA value ≥0.7; Low: HIA value < 0.7) [2]: High (key: High: HIA value ≥0.7; Low: HIA value < 0.7)

SMILES: CC(C)NC[C@@H](O)c1cc(O)cc(O)c1 [Metaproterenol(S)]
- HIA(Human Intestinal Absorption) [1]: 0.43
- Class(High: HIA value ≥0.7; Low: HIA value < 0.7) [2]: Low (key: High: HIA value ≥0.7; Low: HIA value < 0.7)

SMILES: CC(C)c1cccc(C(C)C)c1O [Propofol]
- HIA(Human Intestinal Absorption) [1]: 1
- Class(High: HIA value ≥0.7; Low: HIA value < 0.7) [2]: High (key: High: HIA value ≥0.7; Low: HIA value < 0.7)

SMILES: CC[C@]1(c2cccc(O)c2)CCCCN(C)C1 [Meptazinol(R)]
- HIA(Human Intestinal Absorption) [1]: 1
- Class(High: HIA value ≥0.7; Low: HIA value < 0.7) [2]: High (key: High: HIA value ≥0.7; Low: HIA value < 0.7)

SMILES: Cc1ncc2n1-c1ccc(Cl)cc1C(c1ccccc1F)=NC2 [Midazolam]
- HIA(Human Intestinal Absorption) [1]: 1
- Class(High: HIA value ≥0.7; Low: HIA value < 0.7) [2]: High (key: High: HIA value ≥0.7; Low: HIA value < 0.7)

SMILES: COc1ccc2c3c1O[C@H]1[C@@H](O)CC[C@H]4[C@@H](C2)N(C)CC[C@@]341 [Dihydrocodeine]
- HIA(Human Intestinal Absorption) [1]: 0.88
- Class(High: HIA value ≥0.7; Low: HIA value < 0.7) [2]: High (key: High: HIA value ≥0.7; Low: HIA value < 0.7)

SMILES: COC(=O)C1=C(C)NC(C)=C(C(=O)OC(C)C)[C@@H]1c1cccc2nonc12 [Isradipine(R)]
- HIA(Human Intestinal Absorption) [1]: 0.92
- Class(High: HIA value ≥0.7; Low: HIA value < 0.7) [2]: High (key: High: HIA value ≥0.7; Low: HIA value < 0.7)

SMILES: OC[C@@H](O)COc1ccc(Cl)cc1 [Chlorphenesin(R)]
- HIA(Human Intestinal Absorption) [1]: 1
- Class(High: HIA value ≥0.7; Low: HIA value < 0.7) [2]: High (key: High: HIA value ≥0.7; Low: HIA value < 0.7)

SMILES: CCn1cc(C(=O)O)c(=O)c2cc(F)c(N3CCN[C@@H](C)C3)c(F)c21 [Lomefloxacin(S)]
- HIA(Human Intestinal Absorption) [1]: 0.99
- Class(High: HIA value ≥0.7; Low: HIA value < 0.7) [2]: High (key: High: HIA value ≥0.7; Low: HIA value < 0.7)

SMILES: COc1ccccc1OCCNC[C@H](O)c1ccc(C)c(S(N)(=O)=O)c1 [Amosulalol(R)]
- HIA(Human Intestinal Absorption) [1]: 1
- Class(High: HIA value ≥0.7; Low: HIA value < 0.7) [2]: High (key: High: HIA value ≥0.7; Low: HIA value < 0.7)

SMILES: CCCN[C@H]1CCc2nc(N)sc2C1 [Pramipexole(S)]
- HIA(Human Intestinal Absorption) [1]: 0.8
- Class(High: HIA value ≥0.7; Low: HIA value < 0.7) [2]: High (key: High: HIA value ≥0.7; Low: HIA value < 0.7)

SMILES: CC1(C)S[C@@H]2[C@H](NC(=O)COc3ccccc3)C(=O)N2[C@H]1C(=O)O [Phenoxymethyl penicillinic acid]
- HIA(Human Intestinal Absorption) [1]: 0.45
- Class(High: HIA value ≥0.7; Low: HIA value < 0.7) [2]: Low (key: High: HIA value ≥0.7; Low: HIA value < 0.7)

From publication PMC4460250, “Systems Pharmacology Dissecting Holistic Medicine for Treatment of Complex Diseases: An Example Using Cardiocerebrovascular Diseases Treated by TCM” (Evidence-based Complementary and Alternative Medicine : eCAM, 2015)
